Counter-ions that a name gives are not always drawn.
What was measured:
acetylcholine esterase = biological target: T1, acetylcholine esterase (Rattus norvegicus, UniProt P37136); assay: Acetylcholine esterase inhibitory activity (Ellman method); assay type: biochemical; settings: supernatant of male Wistar rat cerebral homogenate; acetylthiocholine/DTNB, absorbance 412 nm; read-out: Acetylcholine esterase inhibition (IC50)
T1 construct: a centrifugation supernatant of a male Wistar rat cerebral homogenate as an acetylcholine esterase source; from tissue; host or cells: male Wistar rat cerebrum, Triton X-100 homogenate supernatant
T1 sequence (P37136 32-614): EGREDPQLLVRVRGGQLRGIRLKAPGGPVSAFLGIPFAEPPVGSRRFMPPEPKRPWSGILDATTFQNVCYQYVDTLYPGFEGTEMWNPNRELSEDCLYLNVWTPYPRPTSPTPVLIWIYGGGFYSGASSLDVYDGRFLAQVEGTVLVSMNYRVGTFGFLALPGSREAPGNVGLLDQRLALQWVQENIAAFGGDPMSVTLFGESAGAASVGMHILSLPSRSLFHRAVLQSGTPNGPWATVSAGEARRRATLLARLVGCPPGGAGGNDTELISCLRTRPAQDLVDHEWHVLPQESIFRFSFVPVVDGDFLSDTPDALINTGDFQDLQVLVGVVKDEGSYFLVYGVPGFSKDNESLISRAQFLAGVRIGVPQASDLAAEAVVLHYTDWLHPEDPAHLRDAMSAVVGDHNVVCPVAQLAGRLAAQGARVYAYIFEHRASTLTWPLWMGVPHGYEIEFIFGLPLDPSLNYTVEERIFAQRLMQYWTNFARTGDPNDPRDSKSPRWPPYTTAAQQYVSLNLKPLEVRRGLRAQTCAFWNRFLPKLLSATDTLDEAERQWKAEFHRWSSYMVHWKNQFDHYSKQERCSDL
Method: Esterase activity was measured according to the method of Ellman et al. (Biochem. Pharmacol., 1961, 7, 88-95) using a centrifugation supernatant of a male Wistar rat cerebral homogenate as an acetylcholine esterase source. First, a sample dissolved in dimethyl sulfoxide (DMSO) (10 mM) was dissolved in water to 30 μM, and eight serial dilutions were prepared at a common ratio of 3 with 30 μM as a highest concentration. Next, 18 times weight of a phosphate buffer [0.1 M phosphate buffer (0.1 M Na2HPO4, prepared from 0.1 M KH2PO4; pH 8.0) with 0.5% Triton X-100] was added to the rat cerebrum. The mixture was homogenized and centrifuged at 3000 rpm for five minutes. The supernatant was diluted 30-fold with a phosphate buffer (pH 8.0) and dispensed to a 96-well plate at 165 μL/well. 6 μL of the diluted sample was added, followed by preincubation at room temperature for about 10 minutes. Thereafter, 9 μL of a reaction mixture [10 mM 5,5′-dithiobis(2-nitrobenzoic acid) (DTNB)/0.1 M phosphate buffer (pH 7.0) with 6 μL of 0.15% NaHCO3+90 mM acetylthiocholine iodide/1 μL of H2O+2 μL of 0.1 M phosphate buffer (pH 8.0)] was added and the absorbance (412 nm) of anions (yellow) of 5-thio-2-nitrobenzoic acid generated by reaction of the produced thiocholine with DTNB anions was measured at room temperature. The acetylcholine esterase activity was determined from the change in absorbance between two minutes and four minutes after the start of the reaction. The inhibition rate (%) of the test compound was determined based on the acetylcholine esterase activity when the compound was not added as 100% and the 50% inhibition concentration (IC50) was calculated.

[1] = biological target: T2, serotonin transporter (SERT) (Rattus norvegicus, UniProt P31652); assay: Serotonin transporter binding inhibitory activity ([3H]paroxetine binding, rat cerebral cortex membrane fraction)
T2 construct: The rat cerebral cortex was homogenized in ice-cold 0.32 M sucrose; from tissue; host or cells: rat cerebral cortex membrane fraction
Method: Affinity of the test substance to a serotonin transporter (SERT) was determined by a test of inhibition of binding of [^3H]paroxetine selectively binding to SERT to a rat cerebral cortex membrane fraction by the test substance. Serotonin reuptake inhibitors are generally known to have SERT binding inhibitory activity. Based on the assumption that the intensity of SERT binding inhibitory activity of the test substance indicates the intensity of reuptake inhibitory activity, affinity of the test substance to SERT was determined and the intensity of the activity was estimated (according to the method described in Marcusson, J.; Eriksson, K; J. Neurochemistry, 1988, 51 (5), 1477).
The rat cerebral cortex was homogenized in ice-cold 0.32 M sucrose. The suspension was centrifuged at 1,000×g for 10 minutes. The resulting supernatant was further centrifuged at 20,000×g for 20 minutes. The resulting precipitate was suspended in 50 mM Tris-HCl (pH 7.4) containing 120 mM NaCl and 5 mM KCl (hereinafter called suspension A) and centrifuged at 20,000×g for 20 minutes. The same operation was repeated once more. The finally obtained precipitate was suspended in a suspension A having a wet weight about 100 times that of the rat cerebral cortex to prepare a membrane fraction which was stored at −80° C. until use.
An incubation mixture (0.5 mL) contained a solution obtained by further diluting the test substance dissolved in DMSO (dimethyl sulfoxide) to a desired concentration (control: only DMSO) 500-fold with purified water (25 μL); a [^3H]paroxetine solution (final concentration: 0.05 nM) as a ligand (25 μL); and the membrane fraction prepared as described above (450 μL). The reaction was started by addition of the membrane fraction, followed by incubation at room temperature for 90 minutes. After the incubation, the mixture was filtered by suction through a GF/B filter using a cell harvester. The filter was washed with 50 mM Tris-HCl (pH 7.4) and then radioactivity of [^3H]paroxetine binding to SERT was measured using a liquid scintillation counter. Binding detected in the presence of 1 or 10 μM fluoxetine was defined as non-specific binding.

T2 sequence (P31652 whole entry): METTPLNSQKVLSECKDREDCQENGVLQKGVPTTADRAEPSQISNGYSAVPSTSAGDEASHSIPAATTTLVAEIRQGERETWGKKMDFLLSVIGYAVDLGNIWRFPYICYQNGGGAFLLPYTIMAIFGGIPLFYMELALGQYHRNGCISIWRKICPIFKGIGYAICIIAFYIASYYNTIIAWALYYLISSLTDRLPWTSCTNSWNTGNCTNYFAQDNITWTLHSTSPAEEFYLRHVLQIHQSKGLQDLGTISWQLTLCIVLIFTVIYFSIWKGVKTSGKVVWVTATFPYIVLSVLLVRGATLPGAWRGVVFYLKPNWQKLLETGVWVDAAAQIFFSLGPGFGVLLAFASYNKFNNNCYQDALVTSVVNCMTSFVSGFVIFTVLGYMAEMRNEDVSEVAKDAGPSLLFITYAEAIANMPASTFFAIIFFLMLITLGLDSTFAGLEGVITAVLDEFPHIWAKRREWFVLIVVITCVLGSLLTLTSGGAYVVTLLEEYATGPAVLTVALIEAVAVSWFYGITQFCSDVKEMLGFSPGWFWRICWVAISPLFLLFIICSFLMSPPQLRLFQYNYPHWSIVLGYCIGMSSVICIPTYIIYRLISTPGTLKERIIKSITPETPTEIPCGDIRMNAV

SMILES | IC50 (acetylcholine esterase) [nM] | IC50 [1] [nM]
CN(C)Cc1c(N2CCCCC2)ccc2c(CCC3CCN(Cc4ccc(C#N)s4)CC3)noc12 [Example 210, 5-{4-{2-[7-(N,N-Dimethylaminomethyl)-6-piperidinobenz[d]isoxazol-3-yl]ethyl}piperidinomethyl}thiophene-2-carbonitrile dihydrochloride] | 2.4 | 12
CN(C)Cc1c(OCC2CC2)ccc2c(CCC3CCN(CC4(CO)CCCC4)CC3)noc12 [Example 51, {1-{4-{2-[6-Cyclopropylmethoxy-7-(N,N-dimethylaminomethyl)benz[d]isoxazol-3-yl]ethyl}piperidinomethyl}cyclopentyl}methanol dihydrochloride] | 3.6 | 1.9
CNCc1c2ccccc2cc2c(CCC3CCN(Cc4ccc(C#N)s4)CC3)noc12 [Example 152, 5-{4-{2-[9-(N-Methylaminomethyl)naphtho[2,3-d]isoxazol-3-yl]ethyl}piperidinomethyl}thiophene-2-carbonitrile dihydrochloride] | 4.9 | 10
N#Cc1ccc(CN2CCC(CCc3noc4c(CN5CCC5)c(OCC5CC5)ccc34)CC2)s1 [Example 118, 5-{4-{2-[7-(Azetidin-1-ylmethyl)-6-cyclopropylmethoxybenz[d]isoxazol-3-yl]ethyl}piperidinomethyl}thiophene-2-carbonitrile fumarate] | 12 | 10
CN(C)Cc1c2ccccc2cc2c(CCC3CCN(Cc4ccc(C#N)s4)CC3)noc12 [Example 151, 5-{4-{2-[9-(N,N-Dimethylaminomethyl)naphtho[2,3-d]isoxazol-3-yl]ethyl}piperidinomethyl}thiophene-2-carbonitrile dihydrochloride] | 33 | 54
CN(C)Cc1c(OCc2ccc(C#N)cc2)ccc2c(CCC3CCN(Cc4ccccc4)CC3)noc12 [Example 153, 4-{3-[2-(1-Benzylpiperidin-4-yl)ethyl]-7-(N,N-dimethylaminomethyl)benz[d]isoxazol-6-yloxymethyl}benzonitrile dihydrochloride] | 0.4 | 0.3
CN(C)Cc1c(N2CCOCC2)ccc2c(CCC3CCN(Cc4ccc(C#N)s4)CC3)noc12 [Example 213, 5-{4-{2-[7-(N,N-Dimethylaminomethyl)-6-morpholinobenz[d]isoxazol-3-yl]ethyl}piperidinomethyl}thiophene-2-carbonitrile dihydrochloride] | 3 | 19
CN(C)Cc1c(OCC2CC2)ccc2c(CCC3CCN(Cc4c[nH]c5ccc(F)cc45)CC3)noc12 [Example 88, N,N-Dimethyl{6-cyclopropylmethoxy-3-{2-[1-(5-fluoro-1H-indol-3-ylmethyl)piperidin-4-yl]ethyl}benz[d]isoxazol-7-yl}methylamine dihydrochloride] | 7.7 | 5.3
CN(C)Cc1c(OCC2CC2)ccc2c(CCC3CCN(CC4CCCc5sccc54)CC3)noc12 (centres unmarked) [Example 93, N,N-Dimethyl{6-cyclopropylmethoxy-3-{2-[1-(4,5,6,7-tetrahydrobenzo[b]thiophen-4-ylmethyl)piperidin-4-yl]ethyl}benz[d]isoxazol-7-yl}methylamine dihydrochloride] | 73 | 8.9
CN(C)Cc1ccc2c(CCC3CCN(Cc4ccccc4)CC3)noc2c1OCC1CC1 [Example 178, N,N-Dimethyl{3-[2-(1-benzylpiperidin-4-yl)ethyl]-7-cyclopropylmethoxybenz[d]isoxazol-6-yl}methylamine dihydrochloride] | 4.1 | 62
CN(C)Cc1c(OCc2ccc(F)cc2)ccc2c(CCC3CCN(CC4OCCO4)CC3)noc12 [Example 22, N,N-Dimethyl{3-{2-[1-(1,3-dioxolan-2-ylmethyl)piperidin-4-yl]ethyl}-6-(4-fluorobenzyloxy)benz[d]isoxazol-7-yl}methylamine dihydrobromide] | 4.1 | 1.6
CN(C)Cc1c(OCc2ccc(C#N)cc2)ccc2c(CCC3CCN(CC4OCCO4)CC3)noc12 [Example 154, 4-{7-(N,N-Dimethylaminomethyl)-3-{2-[1-(1,3-dioxolan-2-ylmethyl)piperidin-4-yl]ethyl}benz[d]isoxazol-6-yloxymethyl}benzonitrile fumarate] | 3 | 1
CN(C)Cc1c(OCC2CC2)ccc2c(CCC3CCN(Cc4ccc(C#N)s4)CC3)noc12 [Example 155, 5-{4-{2-[6-Cyclopropylmethoxy-7-(N,N-dimethylaminomethyl)benz[d]isoxazol-3-yl]ethyl}piperidinomethyl}thiophene-2-carbonitrile dihydrochloride] | 5 | 5.3
CN(C)Cc1c(-c2ccccc2)ccc2c(CCC3CCN(Cc4ccccc4)CC3)noc12 [Example 120, N,N-Dimethyl{3-[2-(1-benzylpiperidin-4-yl)ethyl]-6-phenylbenz[d]isoxazol-7-yl}methylamine dihydrochloride] | 1.3 | 0.9
CNCc1c(OCc2ccc(F)cc2)ccc2c(CCC3CCN(CC4OCCO4)CC3)noc12 [Example 78, N-Methyl{3-{2-[1-(1,3-dioxolan-2-ylmethyl)piperidin-4-yl]ethyl}-6-(4-fluorobenzyloxy)benz[d]isoxazol-7-yl}methylamine dihydrochloride] | 0.7 | 1.1
CN(C)Cc1c(OCC2CC2)ccc2c(CCC3CCN(Cc4ccccc4)CC3)noc12 [Example 39, N,N-Dimethyl{6-cyclopropylmethoxy-3-[2-(1-benzylpiperidin-4-yl)ethyl]benz[d]isoxazol-7-yl}methylamine dihydrochloride] | 0.4 | 13
